The values that follow come from patent publication US20260206763A1, “AMIDE COMPOUNDS OR SALTS THEREOF, BACTERICIDAL AGENTS FOR AGRICULTURE AND HORTICULTURE CONTAINING SAID COMPOUNDS, AND METHOD OF USING SAME” (NIHON NOHYAKU CO., LTD., priority 2022, published 2026).

Holding throughout (format): cell-based
One assay deals with Botrytis cinerea. Put plainly: microbe, parasite or virus in culture. The settings on record: read-out: median effective concentration (EC50), mycelium growth inhibitory activity.
Another assay deals with Fusarium graminearum. The experiment in a line: microbe, parasite or virus in culture. As to conditions: read-out: median effective concentration (EC50), mycelium growth inhibitory activity.
The subject of a further assay is Sclerotinia sclerotirum. Put plainly: microbe, parasite or virus in culture. The settings on record: read-out: median effective concentration (EC50), mycelium growth inhibitory activity.
The test system of another assay is Cochliobolus miyabeanus. Put plainly: Antifungal activity test, mycelium growth inhibition on PDA medium. The settings on record: Bipolaris oryzae, read-out: median effective concentration (EC50), mycelium growth inhibitory activity.
The test system of assay [1] is Botryosphaeria berengeriana.

As for `Cc1ccc(CNC(=O)C2(c3ccc(I)cc3)CC2(Cl)Cl)nc1` (centres unmarked) [I-A-257], the EC50 in the assay with Botrytis cinerea, in the assay with Fusarium graminearum, in the assay with Sclerotinia sclerotirum and in the assay with Cochliobolus miyabeanus was at most 200 µg/mL each time.
Turning to `Cc1ccc(CNC(=O)C2(c3ccc(Oc4nc5ccccc5s4)cc3)CC2(Cl)Cl)nc1` (centres unmarked) [I-A-288], the EC50 in the assay on Botrytis cinerea, in the assay with Fusarium graminearum, with Sclerotinia sclerotirum and in the assay with Cochliobolus miyabeanus was at most 200 µg/mL in each case.
For `Cc1ccc(CNC(=O)C2(c3ccc(C4=CCCC4)cc3)CC2(Cl)Cl)nc1` (centres unmarked) [I-A-267], the EC50 with Botrytis cinerea, in the assay with Fusarium graminearum, with Sclerotinia sclerotirum and in the assay on Cochliobolus miyabeanus was at most 200 µg/mL in each case.
As for `O=C(NCc1ccccn1)C1(c2ccc(N=C(c3ccccc3)c3ccccc3)cc2)CC1(Cl)Cl` (centres unmarked) [I-A-159], the EC50 in the assay on Botrytis cinerea, in the assay with Sclerotinia sclerotirum and in the assay with Cochliobolus miyabeanus was at most 200 µg/mL in each case.
With `Cc1ccc(CNC(=O)C2(c3ccc(-c4ccccc4F)cc3)CC2(Cl)Cl)nc1` (centres unmarked) [I-A-261], the EC50 in the assay on Botrytis cinerea, in the assay with Fusarium graminearum, in the assay with Sclerotinia sclerotirum and in the assay with Cochliobolus miyabeanus was at most 200 µg/mL each time.
Turning to `Cc1ccc(CNC(=O)C2(c3ccc(S(=O)(=O)c4ccccc4)cc3)CC2(Cl)Cl)[n+]([O-])c1` (centres unmarked) [I-A-280], the EC50 in the assay with Fusarium graminearum, in the assay with Sclerotinia sclerotirum and in the assay on Cochliobolus miyabeanus was at most 200 µg/mL each time.
Turning to `O=C(NCc1ccccn1)C1(c2ccc(-c3noc(C(F)(F)F)n3)cc2)CC1(Cl)Cl` (centres unmarked) [I-A-132], the EC50 in the assay on Botrytis cinerea, with Fusarium graminearum, in the assay on Sclerotinia sclerotirum and with Cochliobolus miyabeanus was at most 200 µg/mL in each case.
`O=C1c2ccccc2COc2ccc(C3(C(=O)NCc4ccccn4)CC3(Cl)Cl)cc21` (centres unmarked) [I-A-78]: the EC50 with Botrytis cinerea, in the assay with Sclerotinia sclerotirum and with Cochliobolus miyabeanus was at most 200 µg/mL each time.
As for `CC(C)(C)c1ccc(C2(C(=O)N3CCc4cccnc4C3)CC2(Cl)Cl)cc1` (centres unmarked) [I-A-371], the EC50 with Fusarium graminearum, with Sclerotinia sclerotirum and with Cochliobolus miyabeanus was at most 200 µg/mL each time.
On to `O=C(NCc1ccccn1)C1(c2ccc(C(F)(F)F)cc2)CC1(Cl)Cl` (centres unmarked) [I-A-36], for which the “median effective concentration (EC50), spore germination inhibitory activity” value in assay [1] is on record as at most 200 ppm.
As to `CC(C)(C)c1ccc(C2(C(=O)NCc3ccccn3)CC2(Cl)Cl)cc1` (centres unmarked) [I-A-101], the EC50 in the assay with Botrytis cinerea, in the assay with Fusarium graminearum, in the assay with Sclerotinia sclerotirum and in the assay with Cochliobolus miyabeanus was at most 200 µg/mL in each case.
As to `Cc1ccc(CNC(=O)C2(c3ccc(C4=CCCCC4)cc3)CC2(Cl)Cl)nc1` (centres unmarked) [I-A-268], the EC50 in the assay with Botrytis cinerea, in the assay on Fusarium graminearum, in the assay on Sclerotinia sclerotirum and in the assay with Cochliobolus miyabeanus was at most 200 µg/mL each time.
